Here are results for five molecules from patent US4016280A, “4,4-Diarylpiperidine compositions and use” (Byk Gulden Lomberg Chemische Fabrik GmbH, priority 1969, dated 1977).

The nature of series [1]: Potentiation of the effect of hexobarbital. Particulars: in vivo. The text has this: (§1) These compounds are useful as neuroleptics.
Series [2] concerns albino mouse. Nature of the series: Antagonism in the albino mouse of perphenazine catalepsy. In kind it is in vivo. Particulars: for ED50: Mus musculus, po, perphenazine 10 mg/kg p.o., drug per os, Examples 28, 29: 50 to 300 mg/kg; for Anticataleptic action (in words): mouse, in vivo. As for the experimental part:
(§2) Antagonism in the albino mouse
(§3) Com- Preventive Curative catalepsy
(§4) of tion dation p.o.) i.p.)
(§5) *drugs administered per os
(§6) **administered in doses from 50 to 300 mg/kg

Series [3] has as its system albino mouse. Nature of the series: Antagonism in the albino mouse of tremorine tremor. Particulars: tremorine 15 mg/kg i.p., drug per os, Examples 28, 29: 50 to 300 mg/kg; for ED50: Mus musculus, po. In kind it is in vivo. As for the experimental part: as §2, §4, §5, §6
The subject of series [4] is albino mouse. Nature of the series: Antagonism in the albino mouse of reserpine (preventive and curative ptosis/sedation). Particulars: reserpine 2mg/kg sc.; for ED50: Mus musculus, po. In kind it is in vivo. The protocol:
as §2, §3, §4, §5, §6

The nature of a further series: Neuroleptic effects. Particulars: in vivo.
Text: as §1

Series [5] has as its system albino mouse. Nature of the series: General behaviour of the albino mouse with different doses. It is filed as in vivo. Particulars: for Locomotory activity / Restlessness Stereotype / Salivation / Vigilance: different doses per os, Examples 28, 29: 50 to 300 mg/kg; for Sedation of animals (in words): mouse, in vivo. The protocol:
Acute toxi- General behaviour of the albino
city in the mouse with different doses*
as §5, §6

The nature of series [6]: Acute toxicity in the albino mouse. Particulars: in vivo. As for the experimental part:
(§7) As stated above, the compounds of formula I have advantageous central nervous system stimulating properties. Side-effects, as they are encountered on administration of amphetamine-type stimulants, are produced to a much lesser extent by the 4,4-diphenylpiperidine compounds, if at all. […] The tests were carried out according to known and accepted pharmacological standard test methods.
(§8) a Acute toxicity 150 mg./kg. 100 mg./kg.

Series [7] has as its system albino mouse. Nature of the series: Acute toxicity in the albino mouse. Particulars: mouse, in vivo. The protocol: as §7, §8
Series [8] can be described thus: Increase in blood pressure. In kind it is in vivo. Particulars: rats and dogs. The protocol:
as §7
pressure (rats and increase

For series [9], the system named is albino mouse. Nature of the series: Locomotory activity (restlessness in movements). In kind it is in vivo. Particulars: albino mouse 5 mg/kg. perorally. As for the experimental part:
as §7

A short description of the next series: Tachyphylaxis. Particulars: in vivo. As for the experimental part:
as §7
g Tachyphylaxis None Pronounced

The nature of series [10]: Potentiating effect on noradrenaline. Particulars: in vivo. The protocol: as §7
Series [11] deals with albino mouse. Nature of the series: Saliva secretion. It is filed as in vivo. The protocol:
as §7
No secretion Pronounced

A short description of another series: Exophthalmus. Particulars: in vivo. The protocol:
as §7
f Exophthalmus Absent Present

The conditions of series [12]: Randall and Lehmann, J. Pharmacol. Exp. Therap. 93, 314 (1948), cited from earlier work.
For series [13] the following is noted: Marshall, Brit. J. Pharmacol. 10, 270 (1955), technique of Schild, cited from earlier work.
[14] abbreviates: doses from 50 to 300 mg/kg per os.
The mark [15] stands for this setting: 18 h, doses from 50 to 300 mg/kg per os.
The mark [16] stands for this setting: 18 h, doses from 50 to 300 mg/kg per os, read-out: Reserpine antagonism, Preventive Sedation ED50, 18 h.
Where [17] appears, read: drug per os, Examples 28, 29: 50 to 300 mg/kg.
Where [18] appears, read: mouse, po, Table 2, p.o., read-out: Acute toxicity in the albino mouse LD50 p.o.
Where [19] appears, read: drug per os, Examples 28, 29: 50 to 300 mg/kg, read-out: Reserpine antagonism, Curative Sedation ED50.
[20] abbreviates: drug per os, Examples 28, 29: 50 to 300 mg/kg, read-out: Reserpine antagonism, Curative ptosis ED50.
[21] abbreviates: drug per os, read-out: Reserpine antagonism, Preventive Sedation ED50.
[22] abbreviates: drug per os, read-out: Reserpine antagonism, Preventive ptosis ED50.
Setting [23] is: mouse, iv, Table 2, i.v., read-out: Acute toxicity in the albino mouse LD50 i.v.
Where [24] appears, read: listed as 1 methyl-4,4-diphenylpiperidine.

One may read the ED50 as the dose at which the effect has come halfway, by size or by number of responders.

Molecules are shown by their SMILES. Where two headings read alike, the source gives them in different places.

As to `O=C(CCCN1CCC(c2ccccc2)(c2ccccc2)CC1)c1ccc(F)cc1` [Example 28, 1-[3-(p-Fluorobenzoyl)propyl]-4,4-diphenylpiperidine], the “Effect on hexobarbital (in words)” value in series [1] is given as “potentiate the effect of hexobarbital”. Moreover, in the series on albino mouse [2], the ED50 was 50 mg/kg and the “Anticataleptic action (in words)” value was “exhibit anticataleptic action”. In addition, the “Tremorine tremor antagonism ED50” value in the series with albino mouse [3] is “.phi. (no effect)”. In the series on albino mouse [4] (setting [14]), the “Reserpine antagonism, Preventive Sedation ED50, 3 h” value was “.phi. (no effect)” and the “Reserpine antagonism, Preventive ptosis ED50, 3 h” value was “.phi. (no effect)”. In addition, the “Reserpine antagonism, Preventive ptosis ED50, 18 h” value with albino mouse [4] (setting [15]) is “.phi. (no effect)”. Also, the ED50 in the series with albino mouse [4] (setting [16]) is 300 mg/kg. Besides, in the series with albino mouse [4] (setting [17]), the “Reserpine antagonism, Curative Sedation ED50” value was “.phi. (no effect)” and the “Reserpine antagonism, Curative ptosis ED50” value is “.phi. (no effect)”. The “Neuroleptic effects (in words)” value in the series “Neuroleptic effects” is on record as “exhibit neuroleptic effects”. For the same molecule, in the series on albino mouse [5] (albino mouse), the “Vigilance of the animal (in words)” value is “somewhat reduce vigilance”, the Locomotory activity result is listed as “- (decrease)”, the “Restlessness Stereotype” value is “.phi. (no effect)” and the Salivation result is recorded as “.phi. (no effect)”. The Vigilance entry in the series on albino mouse [5] (albino mouse) was “- (decrease)”. In the series with albino mouse [5], the “Sedation of animals (in words)” value is on record as “induce sedation”. For the same molecule, in series [6] (setting [18]), the LD50 was 3800 mg/kg. Also, the “Acute toxicity (in words)” value with albino mouse [7] is “very low acute toxicity”.
On to `CC(N)Cc1ccccc1` (stereo not drawn) [Amphetamine, reference compound], for which the “Increase in blood pressure” value in series [8] is listed as “Pronounced”. The “Locomotory activity (restlessness in movements), increase by” value in the series with albino mouse [9] is 100%. Further, in the series “Tachyphylaxis”, the Tachyphylaxis entry is listed as “Pronounced”. Also, the “Potentiating effect on noradrenaline” value in series [10] is listed as “Present”. In addition, the Saliva secretion result in the series on albino mouse [11] is “Pronounced”. In addition, the LD50 in series [6] (po, Table 1, albino mouse perorally, read-out: Acute toxicity) amounted to 100 mg/kg. For the same molecule, in the series “Exophthalmus”, the Exophthalmus result was “Present”.
Take `CC(C)N1CCC(c2ccccc2)(c2ccccc2)CC1` [Example 4, 1-Isopropyl-4,4-diphenylpiperidine]: the “Increase in blood pressure” value in [8] is reported as “Slight increase”. In addition, the ED50 in the series on albino mouse [2] was 7 mg/kg; in the series with albino mouse [3], 1.5 mg/kg; in the series on albino mouse [4] (setting [19]), 13 mg/kg; in the series on albino mouse [4] (setting [20]), greater than 50 mg/kg; with albino mouse [4] (setting [21]), 3 mg/kg; with albino mouse [4] (setting [22]), 16 mg/kg. Besides, the “Locomotory activity (restlessness in movements), increase by” value with albino mouse [9] worked out at 20%. Also, in “Tachyphylaxis”, the Tachyphylaxis result is listed as “None”. Besides, the “Potentiating effect on noradrenaline” value in series [10] is given as “Present”. In the series with albino mouse [11], the Saliva secretion entry is recorded as “No secretion”. Besides, in the series on albino mouse [5] (albino mouse), the Locomotory activity entry is “(+)”. Also, in the series with albino mouse [5] (albino mouse), the “Restlessness Stereotype” value is recorded as “.phi. (no effect)”. Moreover, in the series with albino mouse [5] (albino mouse), the Salivation entry was “.phi. (no effect)”. The Vigilance result with albino mouse [5] (albino mouse) is listed as “++”. In addition, the LD50 is 20 mg/kg in series [6] (setting [23]) and 150 mg/kg in [6] (setting [18]). In addition, in “Exophthalmus”, the Exophthalmus result was “Absent”.
Take `O=C(CCCN1CCC(c2ccccc2)(c2ccccc2)CC1)c1ccccc1` [Example 29, 1-(3-Benzoylpropyl)-4,4-diphenylpiperidine]: the “Effect on hexobarbital (in words)” value in series [1] was “potentiate the effect of hexobarbital”. Further, in the series on albino mouse [2], the ED50 is 50 mg/kg and the “Anticataleptic action (in words)” value is recorded as “exhibit anticataleptic action”. Moreover, the “Tremorine tremor antagonism ED50” value in the series on albino mouse [3] is given as “.phi. (no effect)”. In the series with albino mouse [4] (setting [14]), the “Reserpine antagonism, Preventive Sedation ED50, 3 h” value is “.phi. (no effect)” and the “Reserpine antagonism, Preventive ptosis ED50, 3 h” value is “.phi. (no effect)”. The “Reserpine antagonism, Preventive ptosis ED50, 18 h” value in the series with albino mouse [4] (setting [15]) is recorded as “.phi. (no effect)”. The ED50 in the series on albino mouse [4] (setting [16]) came out at 100 mg/kg. Further, in the series with albino mouse [4] (setting [17]), the “Reserpine antagonism, Curative Sedation ED50” value was “.phi. (no effect)” and the “Reserpine antagonism, Curative ptosis ED50” value was “.phi. (no effect)”. Moreover, the “Neuroleptic effects (in words)” value in “Neuroleptic effects” is listed as “exhibit neuroleptic effects”. Moreover, in the series on albino mouse [5] (albino mouse), the “Vigilance of the animal (in words)” value was “somewhat reduce vigilance”, the Locomotory activity entry is given as “- (decrease)”, the “Restlessness Stereotype” value is “.phi. (no effect)” and the Salivation entry was “.phi. (no effect)”. Further, the Vigilance result in the series with albino mouse [5] (albino mouse) is given as “- (decrease)”. In addition, in the series with albino mouse [5], the “Sedation of animals (in words)” value was “induce sedation”. Besides, the “Acute toxicity (in words)” value in the series on albino mouse [7] is “very low acute toxicity”.
In the case of `CN1CCC(c2ccccc2)(c2ccccc2)CC1` [Example 1, 1-Methyl-4,4-diphenylpiperidine], the ED50 in the series on albino mouse [2] is 3 mg/kg; in the series with albino mouse [3], 1 mg/kg; in the series on albino mouse [4] (setting [19]) it was 10 mg/kg; in the series on albino mouse [4] (setting [20]) it was greater than 50 mg/kg; with albino mouse [4] (setting [21]), 3 mg/kg; in the series with albino mouse [4] (setting [22]), 4 mg/kg. Further, in the series with albino mouse [5] (albino mouse), the “Locomotory activity (in words)” value is given as “only slightly increased”. Besides, in the series with albino mouse [5] (albino mouse), the “Restlessness, stereotypia or salivation (in words)” value is on record as “without causing restlessness, sterotypia or salivation”. Further, the “Vigilance of the animal (in words)” value in the series with albino mouse [5] (albino mouse) is recorded as “strong increase”. Also, the Locomotory activity result with albino mouse [5] (albino mouse) was “(+)”. Further, the “Restlessness Stereotype” value in the series with albino mouse [5] (albino mouse) is on record as “.phi. (no effect)”. In addition, in the series on albino mouse [5] (albino mouse), the Salivation result is given as “.phi. (no effect)”. In the series on albino mouse [5] (albino mouse), the Vigilance result is “++”. Also, the LD50 in series [6] (setting [23]) came to 45 mg/kg; in series [6] (setting [18]) it was 140 mg/kg. Besides, the Analgesic activity result is “devoid of analgesic activity” in series [12] (listed as 1-methyl-4,4-diphenylpiperidine) and “devoid of analgesic action” in series [12] (setting [24]). The results for the Antihistaminic activity result in series [13] (listed as 1-Methyl-4,4-diphenylpiperidine) and in series [13] (setting [24]) were “devoid of any therapeutically utilizable antihistaminic activity” and “devoid of any therapeutically-utilizable antihistaminic activity”, respectively.
